Experimental data: patent US20220175793A1, “THE USE OF AN MGLUR5 ANTAGONIST FOR TREATING OPIOID ANALGESIC TOLERANCE” (NOVARTIS AG, priority 2019, published 2022)

System: morphine tolerant mice
Test: Opiate tolerance test (hot plate) in the mouse
Type: in vivo
Settings: for foot-licking latency, change as compared with animals receiving morphine from Day 1 to Day 6: morphine 32 mg/kg i.p. twice daily Day 1 to Day 6, hot plate 54° C.
Description: The method, which detects tolerance to analgesic activity, follows that described by Fernandes et al (Naunyn-Schmiedeberg's Arch. Pharmacol., 297, 53-60, 1977).
Mice were placed onto a hot metal plate maintained at 54° C. surrounded by a Plexiglas cylinder (height: 13 cm; diameter: 19 cm) (Bioseb: model PE34). The latency to the first foot-lick was measured (maximum: 30 seconds). Morphine (32 mg/kg i.p.) or vehicle were administered twice daily for 6 days (at about 9:00 and 15:00), and then administered with morphine 8 mg/kg i.p. (or saline) 30 minutes before the test on Day 7 to assess morphine tolerance.
The test substances were each evaluated at 3 doses (1, 3 and 10 mg/kg for Compound (I) and 0.3, 1 and 3 mg/kg for Compound (II), administered in morphine tolerant mice p.o. acutely 60 minutes before the test on Day 7. The experiment included appropriate control groups to assess the potential effects of the test substances on morphine tolerance. Compound (III) was evaluated at 1 dose (10 mg/kg), administered under the same experimental conditions and was used as comparison substance.
10 mice were studied per group. The test was performed blind. Data were analysed by comparing treated groups with appropriate controls using unpaired Student's t tests.

[1] = 1 mg/kg p.o. acutely 60 minutes before the test on Day 7
[2] = 3 mg/kg p.o. acutely 60 minutes before the test on Day 7
[3] = 10 mg/kg p.o. acutely 60 minutes before the test on Day 7

Structure (SMILES) | expression of morphine tolerance (conclusion) (1 mg/kg p.o. acutely) | foot-licking latency, change as compared with animals receiving morphine from Day 1 to Day 6 [1] | foot-licking latency, change as compared with animals receiving morphine from Day 1 to Day 6 [2] | foot-licking latency, change as compared with animals receiving morphine from Day 1 to Day 6 [3] | foot-licking latency, change as compared with animals receiving morphine from Day 1 to Day 6 (0.3 mg/kg p.o. acutely 60 minutes before the test on Day 7) | expression of morphine tolerance (conclusion) (3 mg/kg p.o. acutely) | expression of morphine tolerance (conclusion) (10 mg/kg p.o. acutely)
COC(=O)N1CC[C@@H]2[C@H]1CCC[C@@]2(O)C#Cc1cccc(C)c1 [Compound (I), (−)-(3aR,4S,7aR)-4-Hydroxy-4-m-tolylethynyl-octahydro-indole-1-carboxylic acid methyl ester] | significantly decrease the expression of morphine tolerance | +44% | no significant effects | no significant effects | – | – | –
COCc1cn(C2=NCC(=O)N3CCc4c(ccc(F)c4C4CC4)C3=C2)cn1 [Compound (II), 9-cyclopropyl-10-fluoro-2-(4-(methoxymethyl)-1H-imidazol-1-yl)-7,8-dihydro-[1,4]diazepino[7,1-a]isoquinolin-5(4H)-one] | – | +37% | +38% | – | no effects | significantly decrease the expression of morphine tolerance | –
Cc1cccc(C#Cc2ccccc2)n1 [Compound (III), 2-methyl-6-(phenylethynyl)pyridine, reference compound] | – | – | – | +32% | – | – | significantly decrease the expression of morphine tolerance
